Source: a melting point compilation (Tetko et al.)

With `CN(C)c1ccc(F)cc1` the melting point was 36 °C.
`CC(Cc1ccc(O)c(O)c1)(NN)C(=O)O` (stereo not drawn) showed a melting point of 208 °C.
In the case of `CC1=NN(c2ccc(S(=O)(=O)O)cc2)C(=O)C1`, the melting point is reported as 300 °C.
With `C(=C(\Oc1ccccc1)c1nc2ccccc2s1)/c1ccc2c(c1)OCO2` the melting point was 170 °C.
For `CC(C=CC=C(C)C=CC1=C(C)CC(O)CC1(C)C)=CC=CC=C(C)C=CC=C(C)C=CC1C(C)=CC(O)CC1(C)C` (stereo not drawn), the melting point was 196 °C.
`C[C@]12CCC(=O)C=C1CC[C@@H]1[C@@H]2CC[C@]2(C)C(=O)CC[C@@]12O` gave a melting point of 256 to 260 °C.
With `O=C(CCCN1CCC2(CC1)C(=O)NCN2c1ccccc1)c1ccc(F)cc1` the melting point was 190 °C.
Molecule `c1ccc(-c2cccc(-c3ccccc3)c2)cc1` has a melting point of 87 °C.
For `C=Cc1c(SC)sc(C(=O)O)c1C`, the melting point was 172 to 174 °C.
With `C=CC(C)(O)CCC1C(C)(O)CCC2C(C)(C)CCCC21C` (stereo not drawn) the melting point was 97 °C.
Molecule `COc1ccccc1N1CCN(CC(C)N(C(=O)C2CCCCC2)c2ccccn2)CC1` (stereo not drawn) has a melting point of 90 to 91 °C.
Work on `Nc1ccc2c(c1)CCCC2=O` yielded a melting point of 130 to 131 °C.
With `Cc1ccc(C(=O)c2ccccc2C(=O)O)cc1` the melting point was 146 °C.
`OCCc1ccc2ccccc2n1` gave a melting point of 103 °C.
`CC(C)(C)N(NC(=O)c1ccccc1)C(=O)c1ccc(Cl)cc1Cl` showed a melting point of 134 °C.
In the case of `O=[N+]([O-])c1ccc(/C=C\c2ccccc2[N+](=O)[O-])cc1`, the melting point is reported as 138 to 139 °C.
Work on `Cc1cc2ncc(S(=O)(=O)C(C)(C)C)c(N)n2n1` yielded a melting point of 206 to 208 °C.
Work on `OCc1nc2ccccc2[nH]1` yielded a melting point of 165 to 172 °C.
In the case of `O=c1ccc2cc([N+](=O)[O-])ccc2o1`, the melting point is reported as 190 to 192 °C.
With `CC(C)NC(=O)C(C(F)(F)F)C(F)(F)F` the melting point was 136 °C.
With `Cc1c(/N=C/c2cc(Br)cc(Br)c2O)c(=O)n(-c2ccccc2)n1C` the melting point was 228 °C.
Work on `C=Cc1ccco1` yielded a melting point of -94 °C.
`ClCc1csc(-c2cccs2)n1` gave a melting point of 52 to 56 °C.
With `NN=C(/C(=N/N)c1ccc2ccccc2c1)c1ccccc1` the melting point was 163 °C.
In the case of `CC(C)(C)C1CCC(O)CC1` (stereo not drawn), the melting point is reported as 66 °C.
Work on `CC1OC(=O)C(C)OC1=O` (racemic) yielded a melting point of 124 °C.
In the case of `O=C(O)CCc1ccc(CCC(=O)O)cc1`, the melting point is reported as 229 to 233 °C.
Work on `CN(N)c1c(N(C)N)c(=O)c1=O` yielded a melting point of 201 to 202 °C.
With `c1ccc2c(c1)c1cccc3ccc4cccc2c4c31` the melting point was 180 to 182 °C.
For `CCOC(=O)C(=O)C(=O)OCC`, the melting point was -30 °C.
Molecule `C=CC[Si](c1ccccc1)(c1ccccc1)c1ccccc1` has a melting point of 88 to 90 °C.
`CC(=O)Oc1ccccc1` showed a melting point of -30 °C.
`FC(F)(F)c1ccc(P(c2ccc(C(F)(F)F)cc2)c2ccc(C(F)(F)F)cc2)cc1` gave a melting point of 72 to 75 °C.
For `ON=Cc1ccccc1O`, the melting point was 56 to 59 °C.
For `O=C(O)Cc1ccccc1Nc1c(Cl)cccc1Cl`, the melting point was 157 °C.
`NC(=O)Oc1ccc(Cc2ccccc2)cc1` showed a melting point of 148 °C.
`C[Si](C)(C)OS(=O)(=O)O[Si](C)(C)C` gave a melting point of 47 to 50 °C.
In the case of `O=C(O)CCC(F)(F)C(F)(F)C(F)(F)C(F)(F)C(F)(F)C(F)(F)F`, the melting point is reported as 62 to 64 °C.
For `CN(CC(=O)O)N=O`, the melting point was 66.5 °C.
Work on `N#CC1C(=O)CC(=O)CC1c1ccccc1` (stereo not drawn) yielded a melting point of 177 °C.
With `CC1CCC(C)(C(=O)COC(=O)c2ccccc2)C1(C)C` (stereo not drawn) the melting point was 82 °C.
With `COc1ccc(-n2c(S)nnc2-c2ccc(OC(F)(F)F)cc2)cc1` the melting point was 178 to 180 °C.
`CC1(C)OC2CC(=O)OCC23C1CC(=O)C1(C)C3CCC2(C)C(c3ccoc3)OC(=O)C3OC321` (stereo not drawn) gave a melting point of 298 °C.
With `CC(=O)/C(=N\Nc1cc(Cl)ccc1Cl)C(=O)C(F)(F)F` the melting point was 83 to 85 °C.
`Cc1nn(Cc2nnc(S)o2)c(C)c1Br` showed a melting point of 194 to 195 °C.
`CCCC(=O)c1ccccc1` showed a melting point of 12 °C.
With `OC1(c2ccc(Cl)c(C(F)(F)F)c2)CCN(CCCC(c2ccc(F)cc2)c2ccc(F)cc2)CC1` the melting point was 106 °C.
In the case of `CC(C)(C)c1cc(N)c(C(N)=O)s1`, the melting point is reported as 146 to 148 °C.
